From ChEMBL document CHEMBL4265998, “NLRP3 Modulators for the Treatment of Autoinflammatory Disorders” (ACS Med Chem Lett, 2018)

Assays:
[1] = target: T1, Toll-like receptor 7 (Homo sapiens, UniProt Q9NYK1); test: Agonist activity at TLR7 (unknown origin) expressed in HEK-Blue cells; format: cell-based
T1 sequence (Q9NYK1 whole entry): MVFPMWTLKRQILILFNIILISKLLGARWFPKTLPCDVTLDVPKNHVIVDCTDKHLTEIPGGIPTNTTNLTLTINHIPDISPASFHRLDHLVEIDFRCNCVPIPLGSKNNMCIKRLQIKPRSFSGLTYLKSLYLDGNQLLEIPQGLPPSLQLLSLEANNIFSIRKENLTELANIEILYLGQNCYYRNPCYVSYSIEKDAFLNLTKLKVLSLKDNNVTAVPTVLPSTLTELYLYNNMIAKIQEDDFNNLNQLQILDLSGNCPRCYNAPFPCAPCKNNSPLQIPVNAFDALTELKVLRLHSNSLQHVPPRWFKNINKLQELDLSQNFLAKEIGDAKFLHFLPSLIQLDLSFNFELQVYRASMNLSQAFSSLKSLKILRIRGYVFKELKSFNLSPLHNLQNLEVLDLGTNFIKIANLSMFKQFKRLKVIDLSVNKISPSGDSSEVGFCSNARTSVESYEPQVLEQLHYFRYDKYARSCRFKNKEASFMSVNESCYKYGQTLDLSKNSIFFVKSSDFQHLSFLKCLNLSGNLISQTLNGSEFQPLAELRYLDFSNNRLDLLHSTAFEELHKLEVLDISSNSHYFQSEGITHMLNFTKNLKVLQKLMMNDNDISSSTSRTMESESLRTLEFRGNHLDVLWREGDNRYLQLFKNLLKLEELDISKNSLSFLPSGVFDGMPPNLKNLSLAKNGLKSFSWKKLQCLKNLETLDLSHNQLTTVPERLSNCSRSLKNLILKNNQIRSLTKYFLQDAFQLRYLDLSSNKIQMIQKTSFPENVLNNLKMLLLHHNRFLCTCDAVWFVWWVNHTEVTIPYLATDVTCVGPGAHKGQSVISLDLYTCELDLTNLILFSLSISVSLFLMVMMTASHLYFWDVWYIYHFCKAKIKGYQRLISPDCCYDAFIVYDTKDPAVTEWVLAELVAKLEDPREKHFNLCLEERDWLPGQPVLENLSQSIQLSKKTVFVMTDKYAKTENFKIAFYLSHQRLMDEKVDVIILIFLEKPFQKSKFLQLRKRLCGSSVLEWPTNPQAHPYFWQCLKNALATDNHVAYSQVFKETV

[2] = target: T2, Toll-like receptor 8 (Homo sapiens, UniProt Q9NR97); test: Agonist activity at TLR8 (unknown origin) expressed in HEK-Blue cells; format: cell-based
T2 sequence (Q9NR97 whole entry): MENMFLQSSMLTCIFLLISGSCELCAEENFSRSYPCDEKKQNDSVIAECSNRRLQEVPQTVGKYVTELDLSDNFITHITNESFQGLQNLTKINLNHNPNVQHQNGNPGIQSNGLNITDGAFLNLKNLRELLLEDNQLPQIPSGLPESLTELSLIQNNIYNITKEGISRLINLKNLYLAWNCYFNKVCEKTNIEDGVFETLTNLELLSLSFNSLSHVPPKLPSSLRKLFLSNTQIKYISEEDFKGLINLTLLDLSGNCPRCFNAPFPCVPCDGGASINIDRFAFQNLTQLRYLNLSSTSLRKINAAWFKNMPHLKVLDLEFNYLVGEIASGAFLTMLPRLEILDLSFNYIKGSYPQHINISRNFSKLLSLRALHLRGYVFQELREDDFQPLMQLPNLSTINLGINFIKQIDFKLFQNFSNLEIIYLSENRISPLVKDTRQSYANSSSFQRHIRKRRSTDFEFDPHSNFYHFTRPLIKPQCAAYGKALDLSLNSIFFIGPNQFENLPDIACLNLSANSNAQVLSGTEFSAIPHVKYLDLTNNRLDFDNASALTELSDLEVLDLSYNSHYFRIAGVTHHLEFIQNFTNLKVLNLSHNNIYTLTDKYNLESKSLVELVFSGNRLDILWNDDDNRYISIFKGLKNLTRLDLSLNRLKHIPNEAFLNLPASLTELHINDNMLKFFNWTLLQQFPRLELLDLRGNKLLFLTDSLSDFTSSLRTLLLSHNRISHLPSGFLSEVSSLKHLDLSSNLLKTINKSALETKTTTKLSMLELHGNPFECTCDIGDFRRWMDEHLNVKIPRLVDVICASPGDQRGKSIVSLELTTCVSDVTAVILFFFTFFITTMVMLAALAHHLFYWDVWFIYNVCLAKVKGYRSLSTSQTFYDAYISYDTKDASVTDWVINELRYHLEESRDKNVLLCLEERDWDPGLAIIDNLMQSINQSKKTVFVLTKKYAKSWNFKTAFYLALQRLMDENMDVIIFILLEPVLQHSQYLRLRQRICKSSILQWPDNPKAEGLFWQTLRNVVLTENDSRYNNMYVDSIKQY

SMILES	EC50 [1]	EC50 [2]
CCC(=O)N(CC)Cc1nc2c(N)nc3cc(-c4ccn[nH]4)ccc3c2n1CC	> 100 µM	> 100 µM
Nc1nc2cc(-c3cccs3)ccc2c2[nH]c(CN3CCCC3=O)nc12	> 100 µM	> 100 µM
CCN(Cc1nc2c(N)nc3cc(-c4ccccc4)ccc3c2[nH]1)C(C)=O	> 100 µM	> 100 µM
Cc1ccc(-c2ccc3c(c2)nc(N)c2nc(CN4CCCC4=O)[nH]c23)cc1	> 100 µM	> 100 µM
CCN(Cc1nc2c(N)nc3cc(-c4cc[nH]n4)ccc3c2n1C)C(=O)OC(C)(C)C	> 100 µM	> 100 µM
Nc1nc2cc(-c3ccccc3F)ccc2c2[nH]c(CN3CCCC3=O)nc12	> 100 µM	> 100 µM
CCn1c(CN2CCCC2=O)nc2c(N)nc3cc(-c4cccs4)ccc3c21	> 100 µM	> 100 µM
CCN(C)Cc1nc2c(N)nc3cc(-c4cc[nH]n4)ccc3c2[nH]1	> 100 µM	> 100 µM
CCN(Cc1nc2c(N)nc3cc(C4=CCCC4)ccc3c2[nH]1)C(C)=O	> 100 µM	> 100 µM
Nc1nc2cc(-n3cccn3)ccc2c2[nH]c(CN3C[C@H](c4ccccc4)CC3=O)nc12	> 100 µM	> 100 µM
Cc1cccc(-c2ccc3c(c2)nc(N)c2nc(CN4CCCC4=O)[nH]c23)c1	> 100 µM	> 100 µM
Nc1nc2cc(-c3ccccc3)ccc2c2[nH]c(CN3CCCC3=O)nc12	> 100 µM	> 100 µM
